Measurements from paper PMC10439952, “JT002, a small molecule inhibitor of the NLRP3 inflammasome for the treatment of autoinflammatory disorders” (Scientific Reports, 2023).

Assays:
Assay type in all cases: cell-based
NLRP3 inflammasome [1] = target: T1, NLRP3 inflammasome (Mus musculus, UniProt Q8R4B8); test: Inhibition of IL-1β production in mouse PBMCs stimulated by LPS + ATP; design: host or cells: mouse PBMCs; mouse bone-marrow derived macrophages; mouse whole blood (C57BL/6 in the ex vivo study); details: Mouse PBMC, read-out: Geo Av IC50, IL-1β
T1 sequence (Q8R4B8 whole entry): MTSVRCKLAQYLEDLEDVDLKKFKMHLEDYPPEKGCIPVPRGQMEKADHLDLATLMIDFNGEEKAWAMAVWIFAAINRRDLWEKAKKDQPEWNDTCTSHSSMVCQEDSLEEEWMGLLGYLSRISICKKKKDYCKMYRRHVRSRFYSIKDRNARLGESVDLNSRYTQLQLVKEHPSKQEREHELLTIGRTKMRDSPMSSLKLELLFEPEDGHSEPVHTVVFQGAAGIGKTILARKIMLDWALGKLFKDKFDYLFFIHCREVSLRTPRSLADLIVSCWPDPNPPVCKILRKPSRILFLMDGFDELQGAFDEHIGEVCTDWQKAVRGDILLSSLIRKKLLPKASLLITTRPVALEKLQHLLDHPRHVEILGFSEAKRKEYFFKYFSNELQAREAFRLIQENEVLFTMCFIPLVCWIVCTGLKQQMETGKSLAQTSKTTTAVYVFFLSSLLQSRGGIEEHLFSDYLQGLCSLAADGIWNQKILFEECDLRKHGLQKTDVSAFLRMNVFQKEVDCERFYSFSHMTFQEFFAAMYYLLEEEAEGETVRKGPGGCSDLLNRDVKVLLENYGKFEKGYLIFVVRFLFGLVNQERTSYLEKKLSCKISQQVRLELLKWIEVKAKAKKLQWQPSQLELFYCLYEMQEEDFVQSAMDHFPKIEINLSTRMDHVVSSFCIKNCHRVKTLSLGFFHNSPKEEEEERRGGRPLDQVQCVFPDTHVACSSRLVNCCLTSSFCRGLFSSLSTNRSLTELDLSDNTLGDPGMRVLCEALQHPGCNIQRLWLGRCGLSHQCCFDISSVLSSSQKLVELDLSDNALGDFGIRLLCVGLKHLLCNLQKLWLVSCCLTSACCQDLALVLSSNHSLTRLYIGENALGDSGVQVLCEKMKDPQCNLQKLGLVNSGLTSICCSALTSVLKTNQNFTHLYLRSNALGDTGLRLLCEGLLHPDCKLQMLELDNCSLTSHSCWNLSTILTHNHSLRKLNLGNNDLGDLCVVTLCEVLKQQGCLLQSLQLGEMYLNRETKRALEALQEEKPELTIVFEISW
Experimental: (§1) Inflammasome activation and whole blood assays were essentially carried out as described earlier. Details can be found in the supplementary information section accompanying this publication. A protocol for blood draws from healthy volunteers and use of the blood in preclinical assays was approved by Western Institutional Review Board, Inc (Puyallup, WA, USA). Informed consent was obtained from each donor prior to the first blood draw.
(§2) Cell viability was determined by addition of an equal volume of CellTiter-Glo® 2.0 reagent (Promega) to the remaining cells/supernatant in each well. Intracellular Caspase-1 activity was measured using the Caspase-Glo® assay (Promega) according to the manufacturer’s instructions. The biochemical capsase-1 assay was conducted at Reaction Biology Corporation (Malvern, USA). Human IL-1β, IL-1α, and TNFα and mouse IL-1β were measured in cell culture supernatants using homogeneous time resolved fluorescence assay kits (HTRF, Cisbio, Codolet, France). Human IL-18 was measured in cell culture supernatants using an ELISA kit (R&D Systems, Minneapolis, MN, USA). Plasma IL-1β concentrations were determined by Quantikine® ELISA (R&D Systems, Minneapolis, MN).
(§3) 4H). MS: m/z 433.1 (M+H+). […]

TNFα production = TNFα production in mouse BMDMs stimulated by LPS + nigericin; details: Mouse BMDM, read-out: Geo Av IC50, TNFα
Source text: as §1
4H). MS: m/z 433.1 (M+H+).
Inflammasome activation.PBMCs (iXCells Biotechnologies, San Diego, USA) were thawed the day before the assay and seeded in complete medium (RPMI 1640 medium with GlutaMAX, supplemented with an additional 2.5 g/L D-glucose, 10% Fet al Bovine Serum, 100 mM Sodium Pyruvate, 1% Penicillin/Streptomycin, 10 mM HEPES and 0.05 mM β -mercaptoethanol) in polystyrene V-bottom 96-well plates at 5x10^4 cells per well and incubated overnight at 37°C with 5% CO 2. […]
flagellin, prepared in Opt iMEM and combined with Lipofectamine 2000. […] After priming Nlrp3 -/- mBMDMs with 100 ng/mL of LPS for 3- 5 h, cells were exposed to 100 ng/mL L18- MDP and incubated overnight.At the end of the incubation period of the assays above, plates were briefly centri fuged and hal f of the cell culture supern atant remo ved and either analysed i mmediately or stored at - 80°C for subs equent cytokine […]

NLRP3 inflammasome [2] = target: T1, NLRP3 inflammasome; test: Inhibition of IL-1β production in mouse BMDMs stimulated by LPS + cholesterol crystals; design: host or cells: mouse PBMCs; mouse bone-marrow derived macrophages; mouse whole blood (C57BL/6 in the ex vivo study); details: Mouse BMDM, read-out: Geo Av IC50, IL-1β
Experimental: as §1, §2, §3

IC50 (NLRP3 inflammasome [1]): 7 nM
IC50 (TNFα production): > 10000 nM
IC50 (NLRP3 inflammasome [2]): 2 nM
SMILES: CO[C@@H]1COc2c(S(=O)(=O)NC(=O)Nc3c4c(cc5c3CCC5)CCC4)cnn2C1 [JT002]
